# Source: patent US20030110574A1, “Use of optical brighteners from the class of the stilbene compounds as antimicrobially active substances” (priority 2000, published 2003)
# Test system: bacterial mixture of Staphylococcus aureus ATCC 9144 and Escherichia coli NCTC 8196
# Assay: Antimicrobial activity in agar plates after irradiation with xenon light, viable bacteria counted
# Assay type: cell-based
# Description: Determination of Antimicrobial Activity of Tinopal CBS-X after Irradiation with Light
# The optical brightener of the formula [drawing 28]
# is incorporated in agar plates and subsequently inoculated with bacteria and irradiated with xenon light for 10 minutes or 30 minutes.
# The test is used to detect antimicrobial activity by comparison with unirradiated samples.
# To this end, a 1.5% stock solution in DMSO is prepared.
# 0.5 and 0.1 ml of this solution are added to 15 ml of liquid agar (final concentration: 500 and 100 ppm).
# After solidification and drying, a bacterial mixture of Staphylococcus aureus and Escherichia coli is plated out on the agar (final concentration cfu/ml:˜10^5). The plates are fixed on cotton by means of double sided Scotch tape and are irradiated with a xenon lamp for 10 or 30 minutes.
# Unirradiated agar plattes including 100 and 500 ppm of Tinopal CBS-X and agar plates without Tinopal are incubated as controls.
# All plates were incubated at 37° C. for about 48 hours. After incubation, viable bacteria are counted (see Table 1).
# Staphylococcus aureus ATCC 9144
# Escherichia coli NCTC 8196
# Cultures 18 to 24 hours in casein soymeal peptone broth diluted 1:5000 (Staph.) and 1:10,000 (E. coli) and mixed together
# The table reports the number of colony-forming units of bacteria after 10 minutes' and 30 minutes' irradiation.
compound,measurement,setting,value
O=S(=O)([O-])c1ccccc1C=Cc1ccc(-c2ccc(C=Cc3ccccc3S(=O)(=O)[O-])cc2)cc1.[Na+].[Na+] [Tinopal CBS-X],number of colony-forming units of bacteria,"100 ppm in agar, control not irradiated with xenon light (t: 0′)",4.4 × 10^4 (t: 0′) colony-forming units
same,number of colony-forming units of bacteria,"100 ppm in agar, irradiated with xenon light, 10 minutes, incubated 37° C. about 48 hours",2.3 × 10^4 colony-forming units
same,number of colony-forming units of bacteria,"100 ppm in agar, irradiated with xenon light, 30 minutes, incubated 37° C. about 48 hours",5.1 × 10^2 colony-forming units
same,reduction of the microorganisms compared with unirradiated plates and plates without Tinopal CBS-X,"100 ppm or 500 ppm in agar nutrient medium, 30 minutes' irradiation with a xenon lamp",effective to substantially reduce the microorganisms
same,number of colony-forming units of bacteria,"500 ppm in agar, control not irradiated with xenon light (t: 0′)",4.3 × 10^4 (t: 0′) colony-forming units
same,number of colony-forming units of bacteria,"500 ppm in agar, irradiated with xenon light, 10 minutes, incubated 37° C. about 48 hours",3.0 × 10^4 colony-forming units
same,number of colony-forming units of bacteria,"500 ppm in agar, irradiated with xenon light, 30 minutes, incubated 37° C. about 48 hours",1.5 × 10^2 colony-forming units
